{"source": "patent US10059655B2", "about": "“Lipids and lipid compositions for the delivery of active agents” (priority 2013, dated 2018)", "key": {"[1]": {"assay": "Measurement of siRNA encapsulation (SYBR Gold fluorescence)", "format": "physicochemical", "conditions": "FVII siRNA in LNP", "protocol": "The lipid nanoparticles (LNPs) were formed by mixing equal volumes of lipids dissolved in alcohol with siRNA dissolved in a citrate buffer by an impinging jet process. The lipid solution contains a cationic lipid compound of the invention, a helper lipid (cholesterol), an optional neutral lipid (DSPC) and a stealth lipid (S010, S024, S027, or S031) at a concentration of 8-16 mg/mL with a target of 12 mg/mL in an alcohol. The siRNA to total lipid ratio is approximately 0.05 (wt/wt). Where a LNP formulation contains four lipid components, the molar ratios of the lipids ranges from 20 to 70 mole percent for the cationic lipid with a target of 40-60, the mole percent of helper lipid ranges from 20 to 70 with a target of 30 to 50, the mole percent of neutral lipid ranges from 0-30, the mole percent of PEG lipid has a range from 1 to 6 with a target of 2 to 5. The concentration of siRNA solution ranges from 0.7 to 1.0 mg/mL with a target of 0.8 to 0.9 mg/mL in a sodium citrate: sodium chloride buffer pH 4-6, with a target of 4.5-5.5. The LNPs are formed by mixing equal volumes of lipid solution in ethanol with siRNA dissolved in a citrate buffer by an impinging jet process through a mixing device with ID ranging from 0.25 to 2.0 mm at a flow rate from 10 to 640 mL/min. The mixed LNP solution is held at room temperature for 0-24 hrs prior to a dilution step. The solution is then concentrated and diafiltered with suitable buffer by ultrafiltration process using membranes with a MW cutoff from 30 to 500 KD. The final product is sterile filtered and stored at 4° C.\nSYBR Gold flourescence reagent is used for the determination of siRNA encapsulation in the DLP's. DLP's with and without triton x-100 are used to determine the free siRNA and total siRNA amounts. DLP's samples with and without triton X-100 were excited at 485 nm and flourescence emission is measured at 530 nm. Encapsulation efficiency is calculated based on the following formula: Encapsulation efficiency: [(free siRNA concentration−total siRNA concentration)/(total siRNA concentration)]×100% Encapsulation Data"}, "[2]": {"assay": "Measurement of mRNA encapsulation in lipid nanoparticles (Quant-iT Ribogreen)", "format": "physicochemical", "conditions": "Leptin mRNA in LNP", "outline": "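LNPs were formed by T-junction mixing of ethanolic lipids (cationic lipid:DSPC:cholesterol:PEG lipid 40:10:38:2) with mRNA in citrate pH 5.8–6.0 at N:P 4:1, then dialysed against PBS overnight at 4 °C. RiboGreen fluorescence (ex 480/em 520 nm) was read on samples diluted 400–2,000-fold in TE with or without 0.75% Triton X-100 and quantified against standard curves. Encapsulation % = (Triton − buffer concentration)/Triton concentration.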"}}}
{"smiles": "CCCCC/C=C\\C/C=C\\CCCCCCCC(=O)OCC(COC(=O)CCCCCCC/C=C\\C/C=C\\CCCCC)COC(=O)C1CCN(CC2CC2)CC1", "note": "[Example 9, (9Z,9′Z,12Z,12′Z)-2-(((1-(cyclopropylmethyl)piperidine-4-carbonyl)oxy)methyl)propane-1,3-diyl bis(octadeca-9,12-dienoate)]", "values": [{"measurement": "% encapsulation siRNA FVII", "setting": "[1]", "value": 86.7, "unit": "%"}]}
{"smiles": "CCCCC/C=C\\C/C=C\\CCCCCCCC(=O)OCC(COC(=O)CC(CCCCCCCC)CCCCCCCC)COC(=O)OCCCN(CC)CC", "note": "(centres unmarked) [Example 22, (9Z,12Z)-3-(((3-(diethylamino)propoxy)carbonyl)oxy)-2-(((3-octylundecanoyl)oxy)methyl)propyl octadeca-9,12-dienoate]", "values": [{"measurement": "% encapsulation siRNA FVII", "setting": "[1]", "value": 86.1, "unit": "%"}]}
{"smiles": "CCCCC/C=C\\C/C=C\\CCCCCCCC(=O)OCC(COC(=O)CCCCCCCC(CCCCC)CCCCC)COC(=O)OCCCN(CC)CC", "note": "(centres unmarked) [Example 24, (9Z,12Z)-3-(((3-(diethylamino)propoxy)carbonyl)oxy)-2-(((9-pentyltetradecanoyl)oxy)methyl)propyl octadeca-9,12-dienoate]", "values": [{"measurement": "% encapsulation mRNA Leptin", "setting": "[2]", "value": 86.6, "unit": "%"}, {"measurement": "% encapsulation siRNA FVII", "setting": "[1]", "value": 89.1, "unit": "%"}]}
{"smiles": "CCCCC/C=C\\C/C=C\\CCCCCCCC(=O)OCC(COC(=O)CCCC(CCCCCCC)CCCCCCC)COC(=O)OCCCN(CC)CC", "note": "(centres unmarked) [Example 25, (9Z,12Z)-3-(((3-(diethylamino)propoxy)carbonyl)oxy)-2-(((5-heptyldodecanoyl)oxy)methyl)propyl octadeca-9,12-dienoate]", "values": [{"measurement": "% encapsulation mRNA Leptin", "setting": "[2]", "value": 95.3, "unit": "%"}, {"measurement": "% encapsulation siRNA FVII", "setting": "[1]", "value": 88.7, "unit": "%"}]}
{"smiles": "CCCCC/C=C\\C/C=C\\CCCCCCCC(=O)OCC(COC(=O)OCCN(C)C)COC(=O)C(OCCCCCCC)OCCCCCCC", "note": "(centres unmarked) [Example 26, (9Z,12Z)-3-(2,2-bis(heptyloxy)acetoxy)-2-((((2-(dimethylamino)ethoxy)carbonyl)oxy)methyl)propyl octadeca-9,12-dienoate]", "values": [{"measurement": "% encapsulation mRNA Leptin", "setting": "[2]", "value": 96.9, "unit": "%"}, {"measurement": "% encapsulation siRNA FVII", "setting": "[1]", "value": 80.0, "unit": "%"}]}
